Patent publication US11077100B2, “Tetrahydroquinoline derivatives as P2X7 receptor antagonists” (RaQualia Pharma Inc., priority 2017, dated 2021)
pIC50: −log10 of the molar value.

Assays:
[1] = target: rat P2X7 (Rattus norvegicus (Rat), UniProt Q64663); assay: Rat P2X7 functional assay (Ca2+ influx, Fluo-4, FDSS); format: cell-based; conditions: HEK293 cells stably expressing rat P2X7; BzATP final 10 microM; 7-point dose-response; read-out: Antagonistic activities with respect to the rat P2X7 receptor (IC50)
In short: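 HEK293 cells stably expressing rat P2X7 (5,000/well, plated 24 h before) loaded with Fluo-4; compounds preincubated 10 min at room temperature, then Ca2+ rise after 10 microM BzATP (final) read on FDSS (480/540 nm). IC50 from 7-point curves, duplicate wells.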

[2] = target: human P2X7 (Homo sapiens (Human), UniProt Q99572); assay: Human P2X7 functional assay (Ca2+ influx, Fluo-4, FDSS); format: cell-based; conditions: antagonistic activity with respect to the human P2X7 receptor; BzATP final concentration 80 microM
In short: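 HEK293 cells stably expressing C-terminally FLAG-tagged human P2X7, loaded with Fluo-4. Compounds were preincubated for 10 min at room temperature, then 80 μM BzATP (final) was added and Ca2+ fluorescence read at 540 nm (480 nm excitation) by FDSS. IC50 values come from 7-point curves, duplicate wells.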

human P2X7, sequence (Q99572 whole entry): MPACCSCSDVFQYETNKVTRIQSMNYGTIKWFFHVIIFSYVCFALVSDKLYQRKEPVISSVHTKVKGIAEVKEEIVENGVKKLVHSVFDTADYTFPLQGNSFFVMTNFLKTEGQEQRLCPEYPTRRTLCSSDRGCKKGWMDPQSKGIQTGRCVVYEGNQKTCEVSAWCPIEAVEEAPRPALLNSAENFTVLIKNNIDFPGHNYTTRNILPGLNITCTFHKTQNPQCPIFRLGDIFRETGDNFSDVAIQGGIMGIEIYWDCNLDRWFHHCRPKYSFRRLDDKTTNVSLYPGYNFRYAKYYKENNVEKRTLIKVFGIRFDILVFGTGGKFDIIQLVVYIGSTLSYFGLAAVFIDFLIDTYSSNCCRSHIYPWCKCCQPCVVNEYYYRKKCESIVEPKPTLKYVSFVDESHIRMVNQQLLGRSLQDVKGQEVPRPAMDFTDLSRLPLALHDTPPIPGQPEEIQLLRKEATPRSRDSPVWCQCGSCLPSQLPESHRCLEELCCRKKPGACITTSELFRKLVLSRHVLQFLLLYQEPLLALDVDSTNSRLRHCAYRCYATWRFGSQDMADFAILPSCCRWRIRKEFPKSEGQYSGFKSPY
rat P2X7, sequence (Q64663 whole entry): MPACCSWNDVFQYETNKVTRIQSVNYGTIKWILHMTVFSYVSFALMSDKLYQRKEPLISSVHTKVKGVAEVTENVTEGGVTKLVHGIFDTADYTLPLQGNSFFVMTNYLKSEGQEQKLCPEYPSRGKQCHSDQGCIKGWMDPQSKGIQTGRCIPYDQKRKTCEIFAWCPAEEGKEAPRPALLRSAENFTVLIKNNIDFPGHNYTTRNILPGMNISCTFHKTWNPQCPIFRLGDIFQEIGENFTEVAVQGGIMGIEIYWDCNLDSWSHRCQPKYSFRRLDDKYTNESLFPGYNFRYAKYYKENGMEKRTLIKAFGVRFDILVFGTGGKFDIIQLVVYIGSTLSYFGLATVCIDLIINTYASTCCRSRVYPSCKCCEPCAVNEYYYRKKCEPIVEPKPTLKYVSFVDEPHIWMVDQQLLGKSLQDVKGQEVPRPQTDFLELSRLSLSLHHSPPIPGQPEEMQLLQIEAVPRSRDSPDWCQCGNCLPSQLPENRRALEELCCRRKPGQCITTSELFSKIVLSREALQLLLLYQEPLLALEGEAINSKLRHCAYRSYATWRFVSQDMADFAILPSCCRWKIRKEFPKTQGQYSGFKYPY

| Structure (SMILES) | pIC50 [1] | pIC50 [2] |
| --- | --- | --- |
| CS(=O)(=O)C[C@]1(O)CC[C@@](F)(C(=O)NCc2ccc(Cl)cc2Cl)c2cccnc21 [Example 298, (5S,8S)-N-(2,4-dichlorobenzyl)-5-fluoro-8-hydroxy-8-((methylsulfonyl)methyl)-5,6,7,8-tetrahydroquinoline-5-carboxamide] | > 6.00 | > 7.30 |
| O=C(NCc1ccc(F)cc1Cl)[C@@]1(F)CC[C@@H](O)c2ncccc21 [Example 134, (5R,8R)-N-(2-chloro-4-fluorobenzyl)-5-fluoro-8-hydroxy-5,6,7,8-tetrahydroquinoline-5-carboxamide] | > 6.00 | 6.52 to 7.00 |
| O=C(NCc1ccc(F)c(F)c1F)[C@@]1(F)CC[C@@H](O)c2ncccc21 [Example 136, (5R,8R)-5-fluoro-8-hydroxy-N-(2,3,4-trifluorobenzyl)-5,6,7,8-tetrahydroquinoline-5-carboxamide] | > 6.00 | 6.52 to 7.00 |
| O=C1CC[C@](F)(C(=O)NCc2cccc(C(F)(F)F)c2Cl)c2cccnc21 [Example 246, (R)-N-(2-chloro-3-(trifluoromethyl)benzyl)-5-fluoro-8-oxo-5,6,7,8-tetrahydroquinoline-5-carboxamide] | > 6.00 | > 7.30 |
| O=C(NCc1c(F)cccc1Cl)[C@]1(F)CC[C@H](O)c2ncccc21 [Example 171, (5S,8S)-N-(2-chloro-6-fluorobenzyl)-5-fluoro-8-hydroxy-5,6,7,8-tetrahydroquinoline-5-carboxamide] | > 6.00 | > 7.30 |
| O=C1CC[C@@](F)(C(=O)NCc2ccc(C(F)(F)F)cc2Cl)c2cccnc21 [Example 253, (S)-N-(2-chloro-4-(trifluoromethyl)benzyl)-5-fluoro-8-oxo-5,6,7,8-tetrahydroquinoline-5-carboxamide] | > 6.00 | > 7.30 |
| O=C(NCc1ccc(F)cc1F)[C@]1(F)CC[C@H](O)c2ncccc21 [Example 141, (5S,8S)-N-(2,4-difluorobenzyl)-5-fluoro-8-hydroxy-5,6,7,8-tetrahydroquinoline-5-carboxamide] | > 6.00 | > 7.30 |
| O=C(NCc1cccc(C(F)(F)F)c1Cl)C1CC(O)c2ncccc21 (centres unmarked) [Example 27, N-(2-chloro-3-(trifluoro-methyl)benzyl)-7-hydroxy-6,7-dihydro-5H-cyclopenta[b] pyridine-5-carboxamide] | > 6.00 | > 7.30 |
| O=C(NCc1cccc(C(F)(F)F)c1Cl)[C@]1(F)CC[C@@H](O)c2ncccc21 [Example 102, (5S,8R)-N-(2-chloro-3-(trifluoromethyl)benzyl)-5-fluoro-8-hydroxy-5,6,7,8-tetrahydroquinoline-5-carboxamide] | > 6.00 | > 7.30 |
| CC1(O)CN(C[C@]2(O)CC[C@@](F)(C(=O)NCc3ccc(F)cc3Cl)c3cccnc32)C1 (relative stereo) [Example 54, (5S*,8R*)-N-(2-chloro-4-fluorobenzyl)-5-fluoro-8-hydroxy-8-((3-hydroxy-3-methylazetidin-1-yl)methyl)-5,6,7,8-tetra-hydroquinoline-5-carboxamide] | > 6.00 | > 7.30 |
| Cc1cc(Cl)cc(Cl)c1CNC(=O)C1(O)CCC(O)c2ncccc21 (centres unmarked) [Example 24, N-(2,4-dichloro-6-methyl-benzyl)-5,8-dihydroxy-5,6,7,8-tetrahydroquinoline-5-carboxamide] | > 6.00 | > 7.30 |
| O=C(NCc1c(Cl)cc(Cl)cc1CO)[C@@]1(F)CC[C@@H](O)c2ncccc21 [Example 130, (5R,8R)-N-(2,4-dichloro-6-(hydroxymethyl)benzyl)-5-fluoro-8-hydroxy-5,6,7,8-tetrahydroquinoline-5-carboxamide] | > 6.00 | > 7.30 |
| Cc1cc(Cl)cc(Cl)c1CNC(=O)C1(F)CCC(O)c2ncccc21 (centres unmarked) [Example 18, N-(2,4-dichloro-6-methyl-benzyl)-5-fluoro-8-hydroxy-5,6,7,8-tetrahydroquinoline-5-carboxamide] | > 6.00 | > 7.30 |
| O=C(NCc1cc(F)c(F)cc1Cl)[C@]1(F)CC[C@H](O)c2ncccc21 [Example 163, (5S,8S)-N-(2-chloro-4,5-difluorobenzyl)-5-fluoro-8-hydroxy-5,6,7,8-tetrahydroquinoline-5-carboxamide] | > 6.00 | > 7.30 |
| CC1(O)CCC(F)(C(=O)NCc2cccc(C(F)(F)F)c2Cl)c2cccnc21 (centres unmarked) [Example 58, N-(2-chloro-3-(trifluoro-methyl)benzyl)-5-fluoro-8-hydroxy-8-methyl-5,6,7,8-tetrahydro-quinoline-5-carboxamide] | > 6.00 | > 7.30 |
| CO[C@H]1CC[C@@](F)(C(=O)NCc2ccc(C(F)(F)F)cc2Cl)c2cccnc21 [Example 338, (5S,8S)-N-(2-chloro-4-(trifluoromethyl)benzyl)-5-fluoro-8-methoxy-5,6,7,8-tetrahydroquinoline-5-carboxamide] | > 6.00 | > 7.30 |

| Structure (SMILES) | pIC50 [1] | pIC50 [2] |
| --- | --- | --- |
| O=C(NCc1ccc(F)cc1F)[C@@H]1CC[C@H](O)c2ncccc21 [Example 74, (5R,8S)-N-(2,4-difluoro-benzyl)-8-hydroxy-5,6,7,8-tetrahydroquinoline-5-carboxamide] | > 6.00 | 6.52 to 7.00 |
| O=C(NCc1cccc(Cl)c1Cl)[C@]1(F)CC[C@@H](O)c2ncccc21 (stereo in doubt) [Example 121, (5S,8RS)-N-(2,3-dichlorobenzyl)-5-fluoro-8-hydroxy-5,6,7,8-tetrahydroquinoline-5-carboxamide] | > 6.00 | 7.00 to 7.30 |
| CSC[C@]1(O)CC[C@@](F)(C(=O)NCc2ccc(F)cc2Cl)c2cccnc21 [Example 288, (5S,8S)-N-(2-chloro-4-fluorobenzyl)-5-fluoro-8-hydroxy-8-((methylthio)methyl)-5,6,7,8-tetrahydroquinoline-5-carboxamide] | > 6.00 | > 7.30 |
| Cc1cc(Cl)cc(Cl)c1CNC(=O)C1(F)CCC(O)(CN(C)C)c2ncccc21 (centres unmarked) [Example 47, N-(2,4-dichloro-6-meth-ylbenzyl)-8-((dimeth-ylamino)meth-yl)-5-fluoro-8-hydroxy-5,6,7,8-tetrahydroquinoline-5-carboxamide] | > 6.00 | > 7.30 |
| C[C@]1(O)CC[C@@](F)(C(=O)NCc2ccc(F)cc2Cl)c2cccnc21 [Example 259, (5S,8S)-N-(2-chloro-4-fluorobenzyl)-5-fluoro-8-hydroxy-8-methyl-5,6,7,8-tetrahydroquinoline-5-carboxamide] | > 6.00 | > 7.30 |
| O=C(NCc1ccc(Cl)cc1Cl)C1(F)CC(O)c2ncccc21 (centres unmarked) [Example 29, N-(2,4-dichlorobenzyl)-5-fluoro-7-hydroxy-6,7-dihydro-5H-cyclopenta[b]pyridine-5-carboxamide] | > 6.00 | > 7.30 |
| N[C@@]1(CO)CC[C@@](F)(C(=O)NCc2ccc(Cl)cc2Cl)c2cccnc21 (relative stereo) [Example 60, (5S*,8S*)-8-amino-N-(2,4-dichloro-benzyl)-5-fluoro-8-(hydroxymethyl)-5,6,7,8-tetrahydroquinoline-5-carboxamide] | > 6.00 | 6.52 to 7.00 |
| C[C@]1(O)CC[C@@](F)(C(=O)NCc2ncc(Cl)cc2Cl)c2cccnc21 [Example 272, (5S,8S)-N-((3,5-dichloropyridin-2-yl)methyl)-5-fluoro-8-hydroxy-8-methyl-5,6,7,8-tetrahydroquinoline-5-carboxamide] | > 6.00 | > 7.30 |
| O=C(NCc1ccc(F)c(F)c1F)[C@@H]1CC[C@H](O)c2ncccc21 [Example 72, (5R,8S)-8-hydroxy-N-(2,3,4-trifluorobenzyl)-5,6,7,8-tetrahydroquinoline-5-carboxamide] | > 6.00 | > 7.30 |
| O=C(NCc1ccc(Br)cc1Cl)[C@]1(F)CC[C@H](O)c2ncccc21 [Example 154, (5S,8S)-N-(4-bromo-2-chlorobenzyl)-5-fluoro-8-hydroxy-5,6,7,8-tetrahydroquinoline-5-carboxamide] | > 6.00 | > 7.30 |
| O=C(NCc1ccc(F)c(F)c1F)[C@]1(F)CC[C@](O)(CO)c2ncccc21 [Example 309, (5S,8R)-5-fluoro-8-hydroxy-8-(hydroxymethyl)-N-(2,3,4-trifluorobenzyl)-5,6,7,8-tetrahydroquinoline-5-carboxamide] | > 6.00 | 5.52 to 6.00 |
| O=C(NCc1c(Cl)cc(C(F)(F)F)cc1Cl)[C@]1(F)CC[C@H](O)c2ncccc21 [Example 148, (5S,8S)-N-(2,6-dichloro-4-(trifluoromethyl)benzyl)-5-fluoro-8-hydroxy-5,6,7,8-tetrahydroquinoline-5-carboxamide] | > 6.00 | > 7.30 |
| O=C(NCc1ccc(Cl)cc1F)[C@@H]1CC[C@H](O)c2ncccc21 [Example 78, (5R,8S)-N-(4-chloro-2-fluorobenzyl)-8-hydroxy-5,6,7,8-tetrahydroquinoline-5-carboxamide] | > 6.00 | > 7.30 |
| O=C(NCc1ccc(Cl)cc1Cl)[C@@]1(F)CC[C@](O)(CO)c2ncccc21 [Example 302, (5R,8R)-N-(2,4-dichlorobenzyl)-5-fluoro-8-hydroxy-8-(hydroxymethyl)-5,6,7,8-tetrahydroquinoline-5-carboxamide] | > 6.00 | 6.52 to 7.00 |
| O=C(NC1CCOc2cc(Cl)cc(Cl)c21)[C@]1(F)CC[C@H](O)c2ncccc21 (stereo partly drawn) [Example 230, (5S,8S)-N-(5,7-dichlorochroman-4-yl)-5-fluoro-8-hydroxy-5,6,7,8-tetrahydroquinoline-5-carboxamide] | > 6.00 | > 7.30 |
